This is an account of results in patent US4180505A, “Novel steroidspirooxazolidines and process for their preparation” (Richter Gedeon Vegyeszet, Gyar RT, priority 1977, dated 1979).

Assay [1] has as its system aldosterone. As to the kind of experiment: Aldosterone antagonist effect in adrenalectomized DOCA-treated rats, urinary Na+/K+ (method of C. M. Kagawa). In kind it is in vivo. The settings on record: for Activity related to Spironolactone: Spironolactone = 1.0. How it is done:
M. Kagawa [C. M. Kagawa et al., J. Pharmacol. Exp. Ther. 126, 123 (1959)].
18 hours after the removal of their suprarenal glands, desoxycorticosterone acetate (DOCA) was administered to groups of rats which were simultaneously treated with the test and, respectively, the reference compounds. The reference compound, i.e. Spironolactone (17α-carboxyethyl-17β-hydroxy-7α-acetylthioandrost-4-en-3-one-lactone), was administered orally in a dose of 480 μg./animal. The Na^+ and K^+ concentrations in the urine of the treated animals were determined by flame photometry. Evaluation was made on the basis of the Na^+ /K^+ proportions.

For assay [2], the system named is vesicula seminalis gland (weight increase induced by testosterone propionate). Put plainly: Antiandrogenic activity in castrated testosterone propionate-treated male mice, vesicula seminalis weight (modified method of Dorfman). In kind it is in vivo. The protocol:
The antiandrogenic activity of the compounds according to the invention--anundesirable side-effect exerted by spironolactone during protracted treating--was tested by the modified method of Dorfman (R. Dorfman: Steroids 2, 185 (1963).
Castrated male mice weighing 25 to 30 g. each were treated with testosterone propionate (T.P.) in every second day. The total dose amounted to 300 μg./2 weeks/animal. The test compounds were administered parallel with the T. […] The antiandrogenic activity of a given test compound was expressed in %. If the increase in weight of the vesicula seminalis gland induced by T.P. is 100%, subtracting the weight-increase induced by the combination of T.P. and the test compound from 100, the percentage inhibition is obtained.
Each group of test amimals consisted of from 8 to 10 mice.

The mark [3] stands for this setting: Rattus norvegicus, po, 480 μg/animal p.o., read-out: DOCA blocking activity.
Where [4] appears, read: Rattus norvegicus, po, 960 μg/animal p.o., read-out: DOCA blocking activity.
The mark [5] stands for this setting: 5.0 mg/2 weeks/animal s.c., with testosterone propionate.
The mark [6] stands for this setting: 10.0 mg/2 weeks/animal s.c., with testosterone propionate.

For `CC[C@]12CC[C@H]3[C@@H](CCC4=CC(=NOC)CC[C@@H]43)[C@@H]1CC[C@@]21CN(C)C(=O)O1` [13β-Ethyl-3-methoxyiminogon-4-ene-17S-spiro-5'-(2'-oxo-3'-methyloxazolidine)], the “log (Na × 10 / K), X ± S” value is reported as 1.19 in assay [1] (480 μg/animal p.o., with DOCA) and 0.97 in assay [1] (960 μg/animal p.o., with DOCA). Besides, in assay [1] (480 μg/animal p.o.), the “Activity related to Spironolactone” value is given as 0.98. The inhibition in vivo at 0.48 mg in assay [1] (setting [3]) was 53%. Besides, the inhibition in vivo at 0.96 mg in assay [1] (setting [4]) was determined as 24%. The “+ Stimulation, % / - Inhibition, %” value in assay [2] (setting [5]) is reported as “+15.0%”. The “Increase in weight of vesicula seminalis” value in assay [2] (setting [5]) is given as 115.0%.
With `CC(=O)OCC(=O)[C@H]1CC[C@H]2[C@@H]3CCC4=CC(=O)CC[C@]4(C)[C@H]3CC[C@]12C` [DOCA, Pregn-4-ene-3,20-dion-21-ol-acetate, reference compound], the “log (Na × 10 / K), X ± S” value in assay [1] (DOCA, 12.5 μg/animal s.c.) was determined as 0.78.
Consider `CN1C[C@@]2(CC[C@H]3[C@@H]4C=C[C@]56C[C@@H](O)CC[C@]5(C6)[C@H]4CC[C@@]32C)OC1=O` [3β-Hydroxy-5β,19-cycloandrost-6-ene-17S-spiro-5'-(2'-oxo-3'-methyloxazolidine)], for which the “log (Na × 10 / K), X ± S” value amounted to 1.18 in assay [1] (480 μg/animal p.o., with DOCA) and 1.23 in assay [1] (960 μg/animal p.o., with DOCA). For the same molecule, in assay [1] (480 μg/animal p.o.), the “Activity related to Spironolactone” value is on record as 0.98. The inhibition in vivo at 0.48 mg in assay [1] (setting [3]) was 51%. Besides, the inhibition in vivo at 0.96 mg in assay [1] (setting [4]) was 58%.
With `CC[C@]12CC[C@@H]3C4=C(CC[C@H]3[C@@H]1CC[C@@]21CN(C)C(=O)O1)CC(=O)CC4` [13β-Ethylgon-5(10)-en-3-one-17S-spiro-5'-(2'-oxo-3'-methyloxazolidine)], the “log (Na × 10 / K), X ± S” value in assay [1] (480 μg/animal p.o., with DOCA) was 1.02. Moreover, in assay [1] (480 μg/animal p.o.), the “Activity related to Spironolactone” value stood at 0.84. Moreover, the “log (Na × 10 / K), X ± S” value in assay [1] (960 μg/animal p.o., with DOCA) was determined as 1.34. The inhibition in vivo at 0.48 mg in assay [1] (setting [3]) was 31%. Further, in assay [1] (setting [4]), the inhibition in vivo at 0.96 mg is 71%. In assay [2] (setting [5]), the “+ Stimulation, % / - Inhibition, %” value is reported as “+14.0%” and the “Increase in weight of vesicula seminalis” value was 114.0%.
As to `CC[C@]12C=CC3=C4CCC(=O)C=C4CC[C@H]3[C@@H]1CC[C@@]21CN(C)C(=O)O1` [13β-Ethylgona-4,9(10),11-trien-3-one-17S-spiro-5'-(2'-oxo-3'-methyloxazolidine)], the antialdosterone activity result in assay [1] (compared with the compounds listed in Table I, result in words) is “negligible”. In addition, the “inhibition against testosterone propionate (antiandrogenic activity)” value in assay [2] (300 μg/2 weeks/animal, against 300 μg/2 weeks/animal T.P.) amounted to 70%.
Consider `CN1C[C@@]2(CC[C@H]3[C@@H]4CC=C5C[C@@H](F)CC[C@]5(C)[C@H]4CC[C@@]32C)OC1=O` [3β-Fluoroandrost-5-ene-17S-spiro-5'-(2'-oxo-3'-methyloxazolidine)], for which the “log (Na × 10 / K), X ± S” value in assay [1] (480 μg/animal p.o., with DOCA) stood at 0.98; in assay [1] (960 μg/animal p.o., with DOCA), 1.13. Besides, in assay [1] (480 μg/animal p.o.), the “Activity related to Spironolactone” value was 0.80. For the same molecule, the inhibition in vivo at 0.48 mg in assay [1] (setting [3]) is 26%. The inhibition in vivo at 0.96 mg in assay [1] (setting [4]) was 45%.
Take `CC[C@]12CC[C@H]3[C@@H](CCC4=CC(=O)CC[C@@H]43)[C@@H]1CC[C@@]21CN(C)C(=O)O1` [13β-Ethyl-4-en-3-one-17S-spiro-5'-(2'-oxo-3'-methyloxazolidine)]: the “log (Na × 10 / K), X ± S” value in assay [1] (480 μg/animal p.o., with DOCA) is given as 1.13; in assay [1] (960 μg/animal p.o., with DOCA), 1.16; in assay [1] (1920 μg/animal p.o., with DOCA), 1.30. In assay [1] (480 μg/animal p.o.), the “Activity related to Spironolactone” value came out at 0.93. Also, the inhibition in vivo at 0.48 mg in assay [1] (setting [3]) was found to be 45%. Besides, the inhibition in vivo at 0.96 mg in assay [1] (setting [4]) was 49%. The inhibition in vivo at 1.92 mg in assay [1] (Rattus norvegicus, po, 1920 μg/animal p.o., read-out: DOCA blocking activity) came to 67%.
As to `CN1C[C@@]2(CC[C@H]3[C@@H]4CCC5=CC(=O)CC[C@@H]5[C@H]4CC[C@@]32C)OC1=O` [Oestr. 4-en-3-one-17S-spiro-5'-(2'-oxo-3'-methyloxazolidine)], in assay [1] (480 μg/animal p.o., with DOCA), the “log (Na × 10 / K), X ± S” value was 1.26. In addition, the “Activity related to Spironolactone” value in assay [1] (480 μg/animal p.o.) is given as 1.04. Besides, the “log (Na × 10 / K), X ± S” value in assay [1] (960 μg/animal p.o., with DOCA) turned out to be 1.12. Also, the inhibition in vivo at 0.48 mg in assay [1] (setting [3]) came out at 61%. The inhibition in vivo at 0.96 mg in assay [1] (setting [4]) was 44%. In addition, in assay [2] (setting [5]), the “+ Stimulation, % / - Inhibition, %” value was “+13.0%” and the “Increase in weight of vesicula seminalis” value is on record as 113.0%.
Take `CC(=O)S[C@@H]1CC2=CC(=O)CC[C@]2(C)[C@H]2CC[C@@]3(C)[C@@H](CC[C@@]34CCC(=O)O4)[C@H]12` [Spironolactone, 17α-carboxyethyl-17β-hydroxy-7α-acetylthioandrost-4-en-3-one-lactone, reference compound]: in assay [1] (480 μg/animal p.o., with DOCA), the “log (Na × 10 / K), X ± S” value worked out at 1.21. In addition, the “Activity related to Spironolactone” value in assay [1] (480 μg/animal p.o.) was found to be 1.0. The inhibition in vivo at 0.48 mg in assay [1] (setting [3]) worked out at 54%. Also, the “inhibition (antiandrogenic activity)” value in assay [2] (5.0 mg/2 weeks/animal s.c.) came to 32.5%; in assay [2] (10.0 mg/2 weeks/animal s.c.) it was 50.6%. The results for the “+ Stimulation, % / - Inhibition, %” value in assay [2] (setting [5]) and in assay [2] (setting [6]) were -32.5% and -50.6%, respectively. In addition, the “Increase in weight of vesicula seminalis” value was 67.5% in assay [2] (setting [5]) and 49.4% in assay [2] (setting [6]).
Consider `CN1C[C@@]2(CC[C@H]3[C@@H]4C=CC5=CC(=O)CC[C@]5(C)[C@H]4CC[C@@]32C)OC1=O` [Androst-4,6-dien-3-one-17S-spiro-5'-(2'-oxo-3'-methyloxazolidine)], for which the “log (Na × 10 / K), X ± S” value is recorded as 1.14 in assay [1] (480 μg/animal p.o., with DOCA) and 1.74 in assay [1] (960 μg/animal p.o., with DOCA). In addition, the “Activity related to Spironolactone” value in assay [1] (480 μg/animal p.o.) came to 0.94. Moreover, the inhibition in vivo at 0.48 mg in assay [1] (setting [3]) stood at 46%. For the same molecule, the inhibition in vivo at 0.96 mg in assay [1] (setting [4]) stood at 123%. Also, the “+ Stimulation, % / - Inhibition, %” value in assay [2] (setting [5]) is -1.4%. For the same molecule, in assay [2] (setting [5]), the “Increase in weight of vesicula seminalis” value is listed as 98.6%.
For `C/C=C\N1C[C@@]2(CC[C@H]3[C@@H]4CCC5=C(CC=C(OC)C5)[C@H]4CC[C@@]32CC)OC1=O` [13β-Ethyl-3-methoxygona-2,5(10)-diene-17S-spiro-5'-(2'-oxo-3'-(1"-cis-propenyl)-oxazolidine)], the “log (Na × 10 / K), X ± S” value in assay [1] (480 μg/animal p.o., with DOCA) is on record as 1.16. Besides, the “Activity related to Spironolactone” value in assay [1] (480 μg/animal p.o.) is 0.96. Besides, in assay [1] (960 μg/animal p.o., with DOCA), the “log (Na × 10 / K), X ± S” value is listed as 1.22. The inhibition in vivo at 0.48 mg in assay [1] (setting [3]) came to 49%. The inhibition in vivo at 0.96 mg in assay [1] (setting [4]) came to 56%. Also, in assay [2] (setting [5]), the “+ Stimulation, % / - Inhibition, %” value was “+12.5%” and the “Increase in weight of vesicula seminalis” value was 112.5%.
On to `CCC(=O)O[C@H]1CC[C@H]2[C@@H]3CCC4=CC(=O)CC[C@]4(C)[C@H]3CC[C@]12C` [Testosterone propionate, testosterone propionate, reference compound], for which, in assay [2] (testosterone propionate, 0.3 mg/2 weeks/animal), the “Increase in weight of vesicula seminalis” value was 100%.
